Data on 14 compounds can be found in US8222260B2, “Substituted 6-anilinopurine derivatives as inhibitors of cytokinin oxidase/dehydrogenase and preparations containing these derivatives” (Univerzita Palackego V Olomouci, priority 2007, dated 2012).

Assay [1] concerns T-lymphoblastic leukemia cell line CEM. The assay is described as follows: Calcein AM cytotoxicity assay. Conditions: Homo sapiens, 72 hours. The format is cell-based, human.
A further assay has as its target T1, AHK3 (Arabidopsis thaliana, UniProt Q9C5U1).
T1 sequence (Q9C5U1 1-1036): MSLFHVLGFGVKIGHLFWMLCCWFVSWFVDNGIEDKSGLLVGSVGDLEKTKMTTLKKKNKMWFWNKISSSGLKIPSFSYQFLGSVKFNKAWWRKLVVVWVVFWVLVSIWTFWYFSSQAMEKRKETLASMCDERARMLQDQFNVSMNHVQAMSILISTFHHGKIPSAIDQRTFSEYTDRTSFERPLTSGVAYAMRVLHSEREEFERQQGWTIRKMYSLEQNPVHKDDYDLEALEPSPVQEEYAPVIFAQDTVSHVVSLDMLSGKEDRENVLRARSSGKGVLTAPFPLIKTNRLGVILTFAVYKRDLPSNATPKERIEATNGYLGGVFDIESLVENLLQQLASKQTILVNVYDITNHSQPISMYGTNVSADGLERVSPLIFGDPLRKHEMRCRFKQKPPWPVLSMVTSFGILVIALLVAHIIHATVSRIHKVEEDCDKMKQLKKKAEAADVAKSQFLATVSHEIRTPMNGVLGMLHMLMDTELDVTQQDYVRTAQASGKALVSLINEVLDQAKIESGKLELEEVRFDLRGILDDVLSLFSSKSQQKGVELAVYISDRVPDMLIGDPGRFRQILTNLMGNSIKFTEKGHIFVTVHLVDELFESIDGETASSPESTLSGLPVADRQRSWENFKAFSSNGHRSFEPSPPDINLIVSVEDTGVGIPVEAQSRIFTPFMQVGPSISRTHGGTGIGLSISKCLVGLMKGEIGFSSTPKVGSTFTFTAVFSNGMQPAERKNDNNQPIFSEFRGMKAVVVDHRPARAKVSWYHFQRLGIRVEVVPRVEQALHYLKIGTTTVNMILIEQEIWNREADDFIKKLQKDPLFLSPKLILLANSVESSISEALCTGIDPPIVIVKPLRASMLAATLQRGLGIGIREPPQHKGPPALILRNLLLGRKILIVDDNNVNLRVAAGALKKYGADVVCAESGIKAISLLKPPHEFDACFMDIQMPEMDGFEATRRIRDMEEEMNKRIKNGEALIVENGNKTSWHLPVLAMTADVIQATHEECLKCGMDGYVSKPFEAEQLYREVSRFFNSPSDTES
The experiment in a line: Activation of cytokinin receptors (E. coli KMI001 beta-galactosidase reporter). The format is cell-based. Conditions: 28 h incubation; n.a. means no activation. In short, it runs like this: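 E. coli KMI001 carrying the receptor plasmid was grown in M9 + 0.1% casamino acids at 25 °C, diluted 1:600 and treated with compound (stock solutions 10^-7–5×10^-5 M). Supernatant β-galactosidase was read by 4-methylumbelliferyl galactoside hydrolysis (1 h, 37 °C, Na2CO3 stop). EC50 came from dose-response curves, triplicate means.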

In assay [2] the test system is erytroid leukemia cell line K-562. The experiment in a line: Calcein AM cytotoxicity assay. The format is cell-based, human. Particulars: Homo sapiens, K562, 72 hours. The procedure, abridged:
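Cells seeded at 2.500-30.000 per well, pre-incubated 24 h, then exposed 72 h at 37 °C to six 3-fold dilutions (top 166.6 μM), in triplicate. Calcein AM added to 1 μg/ml for 1 h; fluorescence gives growth inhibition, GI50 taken from dose-response curves.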

Some results are limits rather than exact numbers.

The term GI50 denotes the concentration giving 50% growth inhibition. What is called EC50 is the concentration at which the effect is half-maximal.

For `Clc1nc(Nc2ccccc2)c2[nH]cnc2n1` [Compound 1, 2-Chloro-6-anilinopurine], in assay [1], the GI50 was greater than 167 µM.

Take `Clc1cccc(Nc2nc(Cl)nc3nc[nH]c23)c1` [Compound 3, 2-Chloro-6-(3-chloroanilino)purine]: at AHK3, the response was half-maximal at 20 µM (EC50). The GI50 in assay [1] is greater than 167 µM.

With `Clc1ccc(Nc2nc(Cl)nc3[nH]cnc23)cc1` [Compound 4], the GI50 in assay [2] and in assay [1] was greater than 167 µM throughout.

For the compound `Fc1cccc(Nc2nc(Cl)nc3nc[nH]c23)c1` [Compound 6, 2-Chloro-6-(3-fluoroanilino)purine], the GI50 in assay [2] is greater than 167 µM.

`Oc1cccc(Nc2nc(Cl)nc3nc[nH]c23)c1` [Compound 9, 2-Chloro-6-(3-hydroxyanilino)purine] came in with an EC50 on AHK3 of 2.8 µM.

As for `COc1cccc(Nc2nc(Cl)nc3nc[nH]c23)c1` [Compound 12, 2-Chloro-6-(3-methoxyanilino)purine], the EC50 at AHK3 worked out at 9.5 µM.

Consider `Fc1nc(Nc2ccccc2)c2nc[nH]c2n1` [Compound 40], for which the EC50 on AHK3 amounted to 19 µM. Further, the GI50 in assay [1] is greater than 167 µM.

On AHK3, `Fc1nc(Nc2cccc(Cl)c2)c2nc[nH]c2n1` [Compound 42] gave an EC50 of 31.6 µM. For the same compound, the GI50 in assay [1] is greater than 167 µM.

With `Oc1cccc(Nc2nc(F)nc3[nH]cnc23)c1` [Compound 48], in assay [2], the GI50 is greater than 167 µM. The same compound gave an EC50 on AHK3 of 15 µM.

For the compound `COc1cccc(Nc2nc(F)nc3nc[nH]c23)c1` [Compound 51, 2-Fluoro-6-(3-methoxyanilino)purine], the EC50 at AHK3 came out at 22.7 µM. In other words, the double-digit micromolar range.

Take `Nc1nc(Nc2cccc(Cl)c2)c2nc[nH]c2n1` [Compound 66]: the EC50 at AHK3 is 43 µM.

`Nc1nc(Nc2cccc(O)c2)c2nc[nH]c2n1` [Compound 72] registered an EC50 at AHK3 of 7.7 µM. This EC50 lies about 5.6-fold lower than the previous one.

`Fc1cccc(Nc2nc(S)nc3[nH]cnc23)c1` [Compound 83]: the EC50 at AHK3 was greater than 50 µM.

For `c1coc(CNc2ncnc3nc[nH]c23)c1` [Kinetin, 6-furfurylaminopurine, reference compound], the GI50 in assay [1] is 155 µM.
